Patent US20230002359A1, “PESTICIDALLY ACTIVE FUSED BICYCLIC HETEROAROMATIC COMPOUNDS” (priority 2019, published 2023)

Assays:
Type in all cases: in vivo
[1] = test system: Diabrotica Balteata (Corn Root Worm); assay: Example B1: Diabrotica balteata (corn root worm), maize sprouts sprayed, L2 larvae; conditions: 96 h, application rate of 200 ppm, 4 days after infestation, L2 larvae, read-out: control in at least one of the two categories (mortality or growth inhibition)
Method in brief: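 Spray test: maize sprouts on agar, aqueous dilutions of 10′000 ppm DMSO stock; after drying, 6–10 L2 larvae/well. Read-out at 4 d post-infestation: mortality and growth inhibition vs untreated.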

[2] = test system: Chilo suppressalis (Striped Rice Stemborer); assay: Example B3: Chilo suppressalis (striped rice stemborer), artificial diet, L2 larvae; conditions: 144 h, application rate of 200 ppm, 6 days after infestation, L2 larvae, read-out: control in at least one of the three categories (mortality, anti-feedant effect, or growth inhibition)
Method in brief: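 First, artificial diet was treated with aqueous solutions prepared from 10'000 ppm DMSO stocks; second, after drying, L2 larvae (6-8/well) were added; third, effects were assessed at 6 days against untreated controls, counting control when any of three categories was higher.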

[3] = test system: Plutella xylostella (Diamond Back Moth); assay: Example B4: Plutella xylostella (diamond back moth), artificial diet, eggs, 24-well; conditions: 192 h, application rate of 200 ppm, 8 days after infestation, eggs, read-out: control in at least one of the two categories (mortality or growth inhibition)
Procedure: 24-well microtiter plates with artificial diet were treated with aqueous test solutions prepared from 10′000 ppm DMSO stock solutions by pipetting. After drying, Plutella eggs were pipetted through a plastic stencil onto a gel blotting paper and the plate was closed with it. The samples were assessed for mortality and growth inhibition in comparison to untreated samples 8 days after infestation.

[4] = test system: Myzus persicae (Green Peach Aphid); assay: Example B5: Myzus persicae (green peach aphid) feeding/contact activity, sunflower leaf discs; conditions: foliar, 144 h, application rate of 200 ppm, 6 days after infestation
Procedure: Sunflower leaf discs were placed onto agar in a 24-well microtiter plate and sprayed with aqueous test solutions prepared from 10′000 ppm DMSO stock solutions. After drying, the leaf discs were infested with an aphid population of mixed ages. The samples were assessed for mortality 6 days after infestation.

[5] = test system: Myzus persicae (Green Peach Aphid); assay: Example B6: Myzus persicae (green peach aphid) intrinsic activity, sucrose solution; conditions: 120 h, test rate of 12 ppm, 5 days after infestation, intrinsic activity, read-out: mortality
Method in brief: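 Mortality was read 5 days after infestation. Aphids on pea seedlings fed through a stretched Parafilm membrane on inverted 24-well plates containing sucrose solution mixed with test compound, which was diluted from 10′000 ppm DMSO stock.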

[6] = test system: Spodoptera littoralis (Egyptian Cotton Leaf Worm); assay: Example B7: Spodoptera littoralis (Egyptian cotton leaf worm), cotton leaf discs sprayed, L1 larvae; conditions: foliar, 72 h, application rate of 200 ppm, 3 days after infestation, L1 larvae, read-out: control in at least one of the three categories (mortality, anti-feedant effect, or growth inhibition)
Method in brief: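 Cotton leaf discs on agar were sprayed with aqueous test solutions made from 10′000 ppm DMSO stocks, dried, then infested with five L1 larvae. Mortality, anti-feeding effect and growth inhibition were scored against untreated discs 3 days after infestation; control means any category exceeds untreated.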

[7] = test system: Plutella xylostella (Diamondback Moth); assay: Example B9: Plutella xylostella (diamondback moth), artificial diet, eggs, 96-well; conditions: 216 h, application rate of 500 ppm, 9 days after infestation, read-out: control in mortality
Procedure: 96-well microtiter plates containing artificial diet were treated with aqueous test solutions, prepared from 10′000 ppm DMSO stock solutions, by a liquid handling robot. After drying, eggs (˜30 per well) were infested onto a netted lid which was suspended above the diet. The eggs hatch and L1 larvae move down to the diet. The samples were assessed for mortality 9 days after infestation.

[8] = test system: Spodoptera littoralis (Egyptian Cotton Leaf Worm); assay: Example B8: Spodoptera littoralis (Egyptian cotton leaf worm), uptake by lettuce roots from agar, eggs; conditions: 144 h, test rate of 12.5 ppm, 6 days after infestation, compound absorbed by lettuce roots, read-out: control in at least one of the three categories (mortality, anti-feeding, or growth inhibition)
Description: Test compounds were applied by pipette from 10′000 ppm DMSO stock solutions into 24-well plates and mixed with agar. Lettuce seeds were placed onto the agar and the multi well plate was closed by another plate which contained also agar. After 7 days the compound was absorbed by the roots and the lettuce grew into the lid plate. The lettuce leaves were then cut off into the lid plate. Spodoptera eggs were pipetted through a plastic stencil onto a humid gel blotting paper and the lid plate was closed with it. The samples were assessed for mortality, anti-feedant effect and growth inhibition in comparison to untreated samples 6 days after infestation.
The following compounds gave an effect of at least 80% control in at least one of the three categories (mortality, anti-feeding, or growth inhibition) at a test rate of 12.5 ppm: P.58, P.93, P.94, P.95, P.130, P.254, P.256.

[9] = test system: Euschistus heros (Neotropical Brown Stink Bug); assay: Example B2: Euschistus heros (neotropical brown stink bug), soybean leaves sprayed, N2 nymphs; conditions: 120 h, application rate of 200 ppm, 5 days after infestation, N2 nymphs, read-out: control in at least one of the two categories (mortality or growth inhibition)
Procedure: Soybean leaves on agar in 24-well microtiter plates were sprayed with aqueous test solutions prepared from 10′000 ppm DMSO stock solutions. After drying the leaves were infested with N2 nymphs. The samples were assessed for mortality and growth inhibition in comparison to untreated samples 5 days after infestation.

CC(c1ncnn1-c1ccc(C#N)cn1)N(C)c1ncnc2c(C(F)(F)F)cc(Br)cc12 (centres unmarked) [P.52, 6-[5-[1-[[6-bromo-8-(trifluoromethyl)quinazolin-4-yl]-methyl-amino]ethyl]-1,2,4-triazol-1-yl]pyridine-3-carbonitrile]
≥ 80%: percent control (mortality or growth inhibition) at 200 ppm [1] | percent control (mortality, anti-feedant effect or growth inhibition) at 200 ppm [2] | percent control (mortality or growth inhibition) at 200 ppm [3] | mortality at 200 ppm [4] | mortality at 12 ppm [5] | percent control (mortality, anti-feedant effect or growth inhibition) at 200 ppm [6] | mortality at 500 ppm [7]

CC(c1ncnn1-c1ncccn1)N(C)c1ncnc2c(C(F)(F)F)cc(C(F)(F)F)cc12 (centres unmarked) [P.58, N-methyl-N-[1-(2-pyrimidin-2-yl-1,2,4-triazol-3-yl)ethyl]-6,8-bis(trifluoromethyl)quina-zolin-4-amine]
≥ 80%: percent control (mortality, anti-feeding or growth inhibition) at 12.5 ppm [8] | mortality at 500 ppm [7]

CC(c1ncnn1-c1ncccn1)N(C)c1ncnc2c(Cl)cc(Cl)cc12 (centres unmarked) [P.66, 6,8-dichloro-N-methyl-N-[1-(2-pyrimidin-2-yl-1,2,4-triazol-3-yl)ethyl]quianzolin-4-amine]
≥ 80%: percent control (mortality or growth inhibition) at 200 ppm [1] | percent control (mortality, anti-feedant effect or growth inhibition) at 200 ppm [2] | percent control (mortality or growth inhibition) at 200 ppm [3] | mortality at 12 ppm [5] | mortality at 500 ppm [7]

CC(Nc1ccnc2c(Cl)cc(Cl)cc12)c1ncnn1-c1ncccn1 (centres unmarked) [P.67, 6,8-dichloro-N-[1-(2-pyrimidin-2-yl-1,2,4-triazol-3-yl)ethyl]quinolin-4-amine]
≥ 80%: percent control (mortality or growth inhibition) at 200 ppm [1] | percent control (mortality, anti-feedant effect or growth inhibition) at 200 ppm [2] | percent control (mortality or growth inhibition) at 200 ppm [3] | percent control (mortality, anti-feedant effect or growth inhibition) at 200 ppm [6] | mortality at 500 ppm [7]

CC(Nc1ncnc2c(Cl)cc(Cl)cc12)c1ncnn1-c1ncccn1 (centres unmarked) [P.68, 6,8-dichloro-N-[1-(2-pyrimidin-2-yl-1,2,4-triazol-3-yl)ethyl]quinazolin-4-amine]
≥ 80%: percent control (mortality or growth inhibition) at 200 ppm [1] | percent control (mortality, anti-feedant effect or growth inhibition) at 200 ppm [2] | percent control (mortality or growth inhibition) at 200 ppm [3] | percent control (mortality, anti-feedant effect or growth inhibition) at 200 ppm [6] | mortality at 500 ppm [7]

C[C@H](Nc1ncnc2c(OC(F)F)cc(Cl)cc12)c1ncnn1-c1ncccn1 [P.93, 6-chloro-8-(difluoromethoxy)-N-[(1S)-1-(2-pyrimidin-2-yl-1,2,4-triazol-3-yl)ethyl]quinazolin-4-amine]
≥ 80%: percent control (mortality or growth inhibition) at 200 ppm [1] | percent control (mortality or growth inhibition) at 200 ppm [9] | percent control (mortality, anti-feedant effect or growth inhibition) at 200 ppm [2] | percent control (mortality or growth inhibition) at 200 ppm [3] | mortality at 12 ppm [5] | percent control (mortality, anti-feedant effect or growth inhibition) at 200 ppm [6] | percent control (mortality, anti-feeding or growth inhibition) at 12.5 ppm [8] | mortality at 500 ppm [7]

C[C@H](Nc1ncnc2c(Cl)cc(OC(F)F)cc12)c1ncnn1-c1ncccn1 [P.94, 8-chloro-6-(difluoromethoxy)-N-[(1S)-1-(2-pyrimidin-2-yl-1,2,4-triazol-3-yl)ethyl]quinazolin-4-amine]
≥ 80%: percent control (mortality or growth inhibition) at 200 ppm [1] | percent control (mortality, anti-feedant effect or growth inhibition) at 200 ppm [2] | percent control (mortality or growth inhibition) at 200 ppm [3] | mortality at 200 ppm [4] | mortality at 12 ppm [5] | percent control (mortality, anti-feeding or growth inhibition) at 12.5 ppm [8] | mortality at 500 ppm [7]

C[C@H](Nc1ncnc2c(I)cc(C(F)(F)F)cc12)c1ncnn1-c1ncccn1 [P.95, 8-iodo-N-[(1S)-1-(2-pyrimidin-2-yl-1,2,4-triazol-3-yl)ethyl]-6-(trifluoromethyl)quinazolin-4-amine]
≥ 80%: percent control (mortality or growth inhibition) at 200 ppm [1] | percent control (mortality or growth inhibition) at 200 ppm [9] | percent control (mortality, anti-feedant effect or growth inhibition) at 200 ppm [2] | percent control (mortality or growth inhibition) at 200 ppm [3] | mortality at 200 ppm [4] | mortality at 12 ppm [5] | percent control (mortality, anti-feedant effect or growth inhibition) at 200 ppm [6] | percent control (mortality, anti-feeding or growth inhibition) at 12.5 ppm [8] | mortality at 500 ppm [7]

CC(Nc1ncnc2c(C(F)(F)F)cc(Cl)cc12)c1nccnc1-c1ncccn1 (centres unmarked) [P.130, 6-chloro-N-[1-(3-pyrimidin-2-ylpyrazin-2-yl)ethyl]-8-(trifluoromethyl)quinazolin-4-amine]
≥ 80%: percent control (mortality or growth inhibition) at 200 ppm [1] | percent control (mortality, anti-feedant effect or growth inhibition) at 200 ppm [2] | percent control (mortality or growth inhibition) at 200 ppm [3] | mortality at 200 ppm [4] | mortality at 12 ppm [5] | percent control (mortality, anti-feedant effect or growth inhibition) at 200 ppm [6] | percent control (mortality, anti-feeding or growth inhibition) at 12.5 ppm [8]

C[C@@H](c1ncnn1-c1ccc(C#N)cn1)N(C)c1ccnc2c(Br)cc(C(F)(F)F)cc12 [P.254, 6-[5-[(1S)-1-[[8-bromo-6-(trifluoromethyl)-4-quinolyl]-methyl-amino]ethyl]-1,2,4-triazol-1-yl]pyridine-3-carbonitrile]
≥ 80%: percent control (mortality or growth inhibition) at 200 ppm [1] | percent control (mortality, anti-feedant effect or growth inhibition) at 200 ppm [2] | percent control (mortality or growth inhibition) at 200 ppm [3] | percent control (mortality, anti-feedant effect or growth inhibition) at 200 ppm [6] | percent control (mortality, anti-feeding or growth inhibition) at 12.5 ppm [8]

C[C@H](Nc1ccnc2c(Br)cc(C(F)(F)F)cc12)c1ncnn1-c1ccc(C#N)cn1 [P.256, 6-[5-[(1S)-1-[[8-bromo-6-(trifluoromethyl)-4-quinolyl]amino]ethyl]-1,2,4-triazol-1-yl]pyridine-3-carbonitrile]
≥ 80%: percent control (mortality or growth inhibition) at 200 ppm [1] | percent control (mortality, anti-feedant effect or growth inhibition) at 200 ppm [2] | percent control (mortality or growth inhibition) at 200 ppm [3] | percent control (mortality, anti-feedant effect or growth inhibition) at 200 ppm [6] | percent control (mortality, anti-feeding or growth inhibition) at 12.5 ppm [8]
